What all share (experiment): DTP human tumour cell line panel, 48 h
Test [1] deals with HS 578T breast.
In test [2] the test system is NCI-H226 lung.
The test system of test [3] is NCI-H522 lung.
For test [4], the system named is SF-295 CNS.
The subject of test [5] is SK-MEL-28 melanoma.
Test [6] concerns SK-OV-3 ovarian.
Test [7] has as its system SN12C renal.
For test [8], the system named is SR leukemia.
Test [9] has as its system UO-31 renal.

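These data come from cells grown in 96-well plates and exposed to compound for 48 hours at five concentrations. Abbreviation: GI50, concentration required for 50% inhibition of growth. TGI: total growth inhibition.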

On to `O=c1oc2c(cc1-c1ccccc1)C(O)Oc1ccccc1-2` (stereo unspecified), for which the GI50 in [1] is 13.4 µM; in test [2], 28.8 µM; in [3], 4.97 µM; in test [4] it was 8.79 µM; in test [5] it was 3.1 µM; in test [6], 10.2 µM. Moreover, the GI50 in [7] is 20.5 µM; in test [8] it was 2.89 µM; in [9] it was 11.5 µM. Moreover, the TGI in test [1] is above 100 µM; in test [2], above 100 µM; in [3], 21.2 µM; in [4] it was 97.1 µM; in [5] it was 25 µM; in test [6] it was 75.7 µM. The TGI in [7] was above 100 µM; in test [8] it was 13.7 µM; in [9] it was 52.3 µM.

As for `CC(C)(C)c1cc(-c2c3nc(c(-c4cc(C(C)(C)C)cc(C(C)(C)C)c4)c4ccc([nH]4)c(-c4cc(C(C)(C)C)cc(C(C)(C)C)c4)c4nc(c(-c5cc(C(C)(C)C)cc(C(C)(C)C)c5)c5ccc2[nH]5)C=C4)C=C3)cc(C(C)(C)C)c1`, the TGI in [2], in test [3], in test [4], in [5], in [6] and in test [7] was above 100 µM throughout. The TGI in [8] and in test [9] was above 100 µM in each case.

Take `CC(=O)Oc1ccccc1C(=O)NCCC[Se]C#N`: the GI50 was 2.12 µM in [1]; 2.06 µM in [2]; 1.62 µM in test [3]; 1.89 µM in test [4]; 1.89 µM in test [5]; 3.33 µM in test [6]. In addition, the figures for the GI50 in test [7] and in test [8] were 3.2 µM and 2.02 µM, respectively. In addition, the TGI in test [1] was 6.8 µM; in test [2], 5.62 µM; in test [3], 3.5 µM; in test [4], 3.67 µM; in test [5] it was 4.82 µM; in [6], 6.16 µM. The TGI in test [7] stood at 12.4 µM; in [8], 9.4 µM.

`NC1=NCC(c2ccccn2)C1c1ccc(F)cc1` (stereo unspecified): the TGI in [2], in test [3], in test [4], in test [5], in [6] and in [7] was above 100 µM in each case. Moreover, the TGI in test [8] and in [9] was above 100 µM in each case.

Regarding `C/C=C/C=C/CCCCCCCCCCCCC[C@]1(OC)C=CC(CC(=O)OC)OO1` (stereo partly specified), the GI50 was 3.8 µM in test [3] and 18.5 µM in test [4]. Further, the TGI worked out at 16.6 µM in test [3]; 34.3 µM in test [4]; 36.1 µM in test [5]; 81 µM in [6]; 48 µM in test [7].

With `COc1ccc(/C(=C\c2cc(OC)c(OC)c(OC)c2)C(=O)O)cc1`, the TGI in [2] was 77.4 µM; in test [3], 47.7 µM; in [4], 45.5 µM; in [5], above 100 µM; in test [7], above 100 µM; in test [8] it was above 100 µM. In test [9], this compound registered a TGI of 97.5 µM.

On to `C=CCN(N=O)C(=O)N(CCCCC(NC(C)=O)C(=O)NCc1ccccc1)Cc1ccccc1` (stereo unspecified), for which the TGI in test [2] is 60.7 µM; in test [3], 39.9 µM; in [4] it was above 100 µM; in test [5], above 100 µM; in [6] it was above 100 µM; in [7], above 100 µM. The TGI in [9] was found to be 91.7 µM.

Regarding `COC(=O)[C@@H]1[C@H](O)[C@H](C)[C@H](O)[C@H](C)/C=C\C=C(C)C(=O)Nc2c(C)c(OC(C)=O)c3c(c2O)C(=O)C(C)=C2OCOC(=C23)C(C)=C[C@@](C)(O)[C@H](O)[C@@H](C)[C@H]1OC(C)=O`, the TGI in test [1], in [2], in [4], in [5], in test [7] and in test [8] was above 100 µM in each case. Also, in [9], the TGI is above 100 µM.

Consider `Cc1ccccc1NC(=O)C(=O)CC(=O)C1CCOC1=O` (stereo unspecified), for which the TGI in test [2], in test [3], in test [4], in test [5], in test [6] and in [7] was above 100 µM in each case. The TGI in test [9] is above 100 µM.

Consider `C/C(=C1/N=C(c2ccccc2)OC1=O)c1ccccc1`, for which the TGI in [1], in test [2], in test [3], in test [4], in test [5] and in [6] was above 100 µM throughout. The TGI in test [7] and in [8] was above 100 µM in each case.

For the compound `COc1cc(/C=C2\NC(=S)C3Cc4c(OC)c(C)c(OC)c(OC)c4C2N3C)c(OC)c(C)c1OC` (stereo unspecified), the TGI in test [2] was above 100 µM; in test [3], 97.9 µM; in [4] it was above 100 µM; in test [5], above 100 µM; in test [6], above 100 µM; in [7] it was above 100 µM. The TGI in [8] was 55.3 µM; in test [9], above 100 µM.

On to `COC1C(O)CC(OC2CC(OC3CC(O[C@@H]4C(=O)c5c(cc6cc(OC7CC(OC8CC(O)C(O)C(C)O8)C(O)C(C)O7)c(C)c(O)c6c5O)C[C@H]4[C@H](OC)C(=O)[C@@H](O)[C@@H](C)O)OC(C)C3O)OC(C)C2O)OC1C` (stereo partly specified), for which the TGI was below 0.215 µM in [2]; 0.0358 µM in test [3]; above 20.3 µM in test [4]; 0.0224 µM in test [5]; above 100 µM in test [6]; above 60.5 µM in [7]. Moreover, the TGI in [8] was determined as 0.558 µM; in [9], 0.15 µM.

Take `CN(C)CCC(/C=C/c1ccccc1)=N\Nc1ccc(Cl)cc1`: the TGI in [3] came to 7.77 µM; in test [4], 13.1 µM; in test [5], 27.2 µM; in [6] it was 13.4 µM; in test [7], 7.03 µM; in [9], 4.24 µM.

`Cc1cc(Cl)ccc1N1C(=O)C(=O)C(c2nc3ccccc3o2)C(=O)C1=O`: the TGI in [2], in [3], in [4], in test [5], in test [6] and in [7] was above 100 µM in each case. Also, the TGI in test [8] and in test [9] was above 100 µM throughout.

Regarding `Cc1nnc2n1N=C(c1ccc(-c3ccc([N+](=O)[O-])cc3)o1)CS2`, the TGI in test [2], in test [3], in test [4], in test [5], in test [6] and in [7] was above 100 µM in each case. The TGI in test [8] and in test [9] was above 100 µM throughout.

Values taken from PubChem BioAssay (NCI).
